# How the values were obtained:
# [1] = system: fatty acid biosynthesis system (rat liver slices); assay: Effects on fatty acid biosynthesis in rat liver slices ([1-14C] acetic acid incorporation); assay type: cell-based, male Wistar rat; settings: 37° C., 2 hours, radioactivity of fatty acid fraction vs control
# Method: (§1) Effects on sterol and fatty acid biosynthesis systems obtained from a rat liver slices
# (§2) Pharmacological tests were carried out according to the procedure mentioned below, referring to the following document: Endo, A., Tsujita, Y., Kuroda, M. and Tanzawa, K., Eur. J. Biochem., 77, 31-36 (1977).
# (§3) The liver was extirpated from a male Wistar rat (body weight: about 200 g) immediately after sacrifice by decapitation, and sufficiently perfused with ice-cold Krebs-Ringer bicarbonate buffer solution. The liver slices (100 mg) were added to 1 ml of Krebs-Ringer bicarbonate buffer solution containing [1-^14 C] acetic acid (2 μci/μmol) and one of test compounds adjusted to various concentrations, and the reaction was carried out at 37° C. for 2 hours in 95% O2 -5% CO2 gas mixture. After cooling the reaction mixture, 2 ml of petroleum ether was added thereto to extract the sterol fraction with shaking. The extract was concentrated and 1 ml of 1% digitonin solution was added thereto. After standing, the mixture was centrifuged. The sterol fraction obtained as the sediment was washed several times with an organic solvent and dissolved in 1 ml of acetic acid. Subsequently, radioactivity of the sterol fraction was measured. Then the concentration of the test compound (IC50) was determined at which the radioactivity was inhibited by 50% compared with the radioactivity observed in the control group wherein the test compounds were not used.
# In a similar manner, the radioactivity of fatty acid fraction was determined which was obtained by treating, with hydrochloric acid, the lower layer of the petroleum ether mentioned in the above procedure.
# [2] = system: sterol biosynthesis system (rat liver slices); assay: Effects on sterol biosynthesis in rat liver slices ([1-14C] acetic acid incorporation); assay type: cell-based, male Wistar rat; settings: 37° C., 2 hours, radioactivity of sterol fraction vs control
# Method: as §1, §2, §3
# [3] = system: serum lipid (triglyceride and cholesterol); assay: Rate of decrease in serum lipid (triglyceride and cholesterol) in rats after 14-day oral administration; assay type: in vivo, male Sprague-Dawley rats; settings: 300 mg/kg orally everyday for 14 days; 24 hours after last administration; vs control group (0.5% HPMC)
# Method: Male Sprague-Dawley rats (body weight: about 130 g) were preliminarily bred for one week, and divided into groups, each group consisting of five rats. Each of the test compounds was suspended in a 0.5% hydroxy-propylmethylcellulose (HPMC) aqueous solution, and the suspensions were orally administered to the rats at a dose of 300 mg/kg at 9:00 a.m. everyday for 14 days. […] The blood was allowed to stand and centrifuged to obtain serum. Lipid (triglyceride and cholesterol) in the obtained serum was measured by the enzymic method using an autoanalyzer.
# Pharmacological activities of the test compounds were determined as the rate of decrease (%) in serum lipid compared with the control group to which only 0.5% aqueous HPMC solution was administered.
Structure (SMILES),IC50 [1],IC50 [2],Rate of decrease in total cholesterol in serum [3],Rate of decrease in triglyceride in serum [3]
O=C(O)c1ccc(OCC2CN(c3ccc(Br)cc3)C(=O)O2)cc1 (stereo not drawn) [Compound 93],1.55 µM,3.23 µM,,
O=C(O)/C=C/c1ccc(OCC2CN(c3ccc(Cl)cc3)C(=O)O2)cc1 (stereo not drawn) [Compound 183],5.7 µM,17.4 µM,,
O=C(O)c1ccc(OC[C@H]2CN(c3ccc(Cl)cc3)C(=O)O2)cc1 [Compound 149],1.99 µM,3.36 µM,,
O=C(O)c1ccc(OCC2CN(c3ccc(C(F)(F)F)cc3)C(=O)O2)cc1 (stereo not drawn) [Compound 101],3.17 µM,4.8 µM,,
"O=C(O)c1ccc(OCC2CN(c3ccc([N+](=O)[O-])cc3)C(=O)O2)cc1 (stereo not drawn) [Compound 81, 4-[3-(4-nitrophenyl)-2-oxooxazolidin-5-yl]methoxybenzoic acid]",1.3 µM,3.79 µM,,
O=C(O)CCc1ccc(OCC2CN(c3ccc(Cl)cc3)C(=O)O2)cc1 (stereo not drawn) [Compound 193],3.8 µM,16.4 µM,,
Cc1ccc(N2CC(COc3ccc(C(=O)O)cc3)OC2=O)cc1 (stereo not drawn) [Compound 83],2.89 µM,5.74 µM,,
"O=C(O)c1ccc(OCC2CN(c3ccccc3)C(=S)O2)cc1 (stereo not drawn) [Compound 171, 4-(3-phenyl-2-oxazolidinethion-5-yl)methoxybenzoic acid]",9.81 µM,34.5 µM,,
"O=C1OC(COc2ccc(CCCO)cc2)CN1c1ccccc1 (stereo not drawn) [Compound 195, 3-[4-(3-phenyl-2-oxooxazolidin-5-yl)methoxyphenyl]propyl alcohol]",7.3 µM,23.2 µM,,
Cc1ccc(CN2CC(COc3ccc(C(=O)O)cc3)OC2=O)cc1 (stereo not drawn) [Compound 130],14.8 µM,29.5 µM,,
O=C(O)c1ccc(OC[C@@H]2CN(c3ccc(Cl)cc3)C(=O)O2)cc1 [Compound 165],1.09 µM,1.15 µM,,
"O=C1OC(COc2ccc(CCCO)cc2)CN1c1ccc(Cl)cc1 (stereo not drawn) [Compound 194, 3-{4-[3-(4-chlorophenyl)-2-oxooxazolidin-5-yl]methoxyphenyl}propyl alcohol]",4 µM,4.8 µM,,
COc1ccc(N2C[C@@H](COc3ccc(C(=O)O)cc3)OC2=O)cc1 [Compound 164],1.23 µM,0.84 µM,,
"Cc1ccc(N2CC(COc3ccc(CO)cc3)OC2=O)cc1 (stereo not drawn) [Compound 175, 4-[3-(4-tolyl)-2-oxooxazolidin-5-yl]methoxybenzyl alcohol]",2.7 µM,4.8 µM,,
O=C(O)c1ccc(OCC2CN(c3ccc(Br)cc3F)C(=O)O2)cc1 (stereo not drawn) [Compound 100],,,32.4%,62.9%
"COc1ccc(N2CC(COc3ccc(C=O)cc3)OC2=O)cc1 (stereo not drawn) [Compound 1, 4-[3-(4-methoxyphenyl)-2-oxooxazolidin-5-yl]methoxybenzaldehyde]",5.6 µM,10.2 µM,,
O=C(O)c1ccc(OC[C@H]2CN(c3ccc(C(F)(F)F)cc3)C(=O)O2)cc1 [Compound 147],4.78 µM,8.08 µM,,
O=C(O)c1ccc(OCC2CN(c3ccc(OC(F)(F)F)cc3)C(=O)O2)cc1 (stereo not drawn) [Compound 108],,,50.4%,83.0%
O=C(O)c1ccc(OCC2CN(c3ccc(Cl)cc3Cl)C(=O)O2)cc1 (stereo not drawn) [Compound 98],,,26.8%,65.5%
"O=C(O)c1ccc(OCC2COC(=O)N2c2ccccc2)cc1 (stereo not drawn) [Compound 180, 4-(3-phenyl-2-oxooxazolidin-4-yl)methoxybenzoic acid]",33.7 µM,7.1 µM,,
O=Cc1ccc(OCC2CN(c3ccc(Br)cc3F)C(=O)O2)cc1 (stereo not drawn) [Compound 8],2.9 µM,6.4 µM,,
